Measured values from ChEMBL document CHEMBL4431301, “The Medicinal Chemistry of Dengue Virus” (J Med Chem, 2016).
Where a SMILES comes first, the peptide text is derived from it.

What was measured:
[1] = target: T1, Genome polyprotein (dengue virus type 2, UniProt P29990); test: Inhibition of the Dengue virus 2 NS2B-NS3 protease expressed in Escherichia coli BL21(DE3)-RIPL cells using Pyr-RTKR-AMC as substrate preincubated for 30 mins followed by addition of substrate
[2] = tested on: dengue virus type 2; test: Antiviral activity against Dengue virus 2 NGC infected in BHK21 cells assessed as reduction in virus replication after 24 hrs by renilla luciferase reporter gene assay; type: functional, organism-based; settings: BHK-21, 24 h
[3] = Cytotoxicity against BHK21 cells assessed as cell viability after 24 hrs by ATP-Lite assay; type: cell-based, Mesocricetus auratus, BHK-21; settings: hamster
[4] = tested on: dengue virus type 1; test: Antiviral activity against Dengue virus 1 Hawaii infected in african green monkey Vero cells assessed as blockage of viral entry after 72 hrs by foci-forming assay; type: functional, organism-based
[5] = tested on: dengue virus type 2; test: Antiviral activity against Dengue virus 2 16681 infected in african green monkey Vero cells assessed as blockage of viral entry after 72 hrs by foci-forming assay; type: functional, organism-based; settings: Dengue virus, 16681, Vero
[6] = tested on: dengue virus type 3; test: Antiviral activity against Dengue virus 3 H87 infected in african green monkey Vero cells assessed as blockage of viral entry after 72 hrs by foci-forming assay; type: functional, organism-based
[7] = tested on: dengue virus type 4; test: Antiviral activity against Dengue virus 4 H241 infected in african green monkey Vero cells assessed as blockage of viral entry after 72 hrs by foci-forming assay; type: functional, organism-based
[8] = target: Genome polyprotein (dengue virus type 2) (UniProt P29990); test: Inhibition of the Dengue virus 2 NS2B-NS3 protease using Bz-nKRR-AMC as substrate at 300 uM preincubated for 15 mins followed by substrate addition measured after 30 mins by fluorescence assay
[9] = Cytotoxicity against BHK21 cells assessed as cell viability after 48 hrs by Celltiter-Glo luminescent assay; type: cell-based, Mesocricetus auratus, BHK-21; settings: hamster
[10] = tested on: dengue virus type 2; test: Antiviral activity against Dengue virus 2 infected in human HuH7 cells after 48 hrs by CFI assay; type: functional, organism-based; settings: Huh-7, 48 h
[11] = Cytotoxicity against human HuH7 cells assessed as cell viability after 48 hrs by Celltiter-Glo luminescent assay; type: cell-based, Huh-7
[12] = target: T1, Genome polyprotein; test: Inhibition of Dengue virus 2 Taiwanese PL046 NS2B-NS3 protease using Ac-TTSTRR-pNA as substrate preincubated for 10 mins followed by addition of substrate measured after 2 hrs
[13] = tested on: dengue virus type 2; test: Antiviral activity against Dengue virus 2 NGC infected in BHK21 cells assessed as reduction in viral titer after 3 days by RT-PCR method; type: functional, organism-based; settings: BHK-21, 72 h
[14] = Inhibition of envelope protein mediated membrane fusion in Dengue virus TSV01 infected in mosquito C6/36 cells after 1 hr by propidium iodide staining based fluorescence assay; type: cell-based; settings: TSV01, C6/36, 1 h
[15] = Inhibition of envelope protein mediated membrane fusion in Dengue virus TSV01 infected in mosquito C6/36 cells assessed as trypsin degradation after 1 hr by SDS-PAGE method; type: cell-based; settings: TSV01, C6/36, 1 h
[16] = Cytotoxicity against BHK21 cells assessed as cell viability after 3 days by CellTiter Glo assay; type: cell-based, Mesocricetus auratus, BHK-21; settings: hamster
[17] = target: T1, Genome polyprotein; test: Inhibition of Dengue virus 2 NS2B-NS3 protease expressed in Escherichia coli BL21(DE3) using Boc-Gly-Arg-Arg-7-amino-4-methylcoumarin as substrate after 10 mins by fluorescence assay
[18] = tested on: dengue virus type 2; test: Antiviral activity against Dengue virus 2 infected in african green monkey Vero cells preincubated with cells followed by viral infection measured after 4 days by immunofluorescence staining based fluorescence microscope; type: functional, organism-based
[19] = target: T1, Genome polyprotein; test: Inhibition of Dengue virus 2 GFP/DsRed fused NS2B-NS3 protease co-transfected in HEK293T cells by Western blot analysis; type: cell-based
[20] = tested on: dengue virus type 2; test: Antiviral activity against Dengue virus 2 NGC infected in monkey LLC-MK2 cells preincubated with virus for 1 hr followed by cell infection for 1 hr by focus forming unit assay; type: functional, organism-based

Nc1cc(N)c(/N=N/c2ccc(S(=O)(=O)Nc3nccs3)cc2)cc1/N=N/c1ccc(S(=O)(=O)Nc2nccs2)cc1
IC50 [1]: 2.75 µM
EC50 [2]: 39.9 µM
CC50 at 24 h [3]: 213 µM

CC[C@H](C)[C@H](NC(=O)[C@H](Cc1c[nH]c2ccccc12)NC(=O)[C@@H](NC(=O)[C@H](CCC(=O)O)NC(=O)[C@@H](NC(=O)[C@H](CCCNC(=N)N)NC(=O)[C@H](CCC(N)=O)NC(=O)[C@@H](NC(=O)[C@H](Cc1cnc[nH]1)NC(=O)[C@H](CCCCN)NC(=O)[C@H](Cc1c[nH]c2ccccc12)NC(=O)[C@H](C)NC(=O)CNC(=O)[C@H](CCC(=O)O)NC(=O)[C@H](CO)NC(=O)[C@H](CO)NC(=O)[C@H](CCSC)NC(=O)[C@H](Cc1c[nH]c2ccccc12)NC(=O)[C@@H](NC(=O)[C@H](CCC(=O)O)NC(=O)[C@@H](NC(=O)[C@H](CCCNC(=N)N)NC(=O)[C@@H](NC(=O)[C@H](CCC(=O)O)NC(=O)[C@H](CC(C)C)NC(=O)CNC(=O)[C@H](CCSC)NC(=O)CNC(=O)[C@@H](NC(=O)[C@H](Cc1cnc[nH]1)NC(=O)[C@@H]1CCCN1C(=O)[C@@H](NC(=O)[C@H](CC(C)C)NC(=O)[C@H](C)NC(=O)[C@@H](NC(=O)[C@@H](N)CO)C(C)C)C(C)C)C(C)C)[C@@H](C)O)[C@@H](C)O)[C@@H](C)O)C(C)C)[C@@H](C)CC)[C@H](C)O)C(=O)N[C@@H](CC(C)C)C(=O)N[C@@H](CCCNC(=N)N)C(=O)N[C@@H](Cc1cnc[nH]1)C(=O)N1CCC[C@H]1C(=O)NCC(=O)O
EC50 [4]: 24 to 31 µM
EC50 [5]: 24 to 31 µM
EC50 [6]: 24 to 31 µM
EC50 [7]: 24 to 31 µM

Cc1cc(N2CCN(C)CC2)ccc1NC(=O)c1c2c(nc3ccccc13)CCN(Cc1ccccc1)C2
inhibition [8]: 85%
CC50 at 48 h [9]: > 300 µM
EC50 [10]: 5 µM
CC50 at 48 h [11]: 55 µM

CCCCCCCCCCCCCCCC[N+](CC)(CO)CO
IC50 [12]: 22.6 µM

O=C(O)c1cc(=O)c2ccc(S[C@@H](/C=C/C=C\CCOc3ccc(Cl)c(Cl)c3)[C@H](O)c3cccc(C(F)(F)F)c3)cc2o1
EC50 [13]: 9.8 µM
IC50 [14]: 6.8 µM
IC50 [15]: 6.8 µM
CC50 at 72 h [16]: 48.7 µM

O=C(Nc1nc2cc(O)c(O)cc2s1)c1ccccc1Oc1ccc2cc(O)ccc2c1
IC50 [17]: 4.2 µM
EC50 [18]: 0.8 µM
IC50 [19]: 3.2 µM

CC[C@H](C)[C@H](NC(=O)[C@H](CC(C)C)NC(=O)[C@@H](NC(=O)[C@H](Cc1ccccc1)NC(=O)[C@H](Cc1c[nH]c2ccccc12)NC(=O)[C@@H](N)Cc1ccccc1)[C@@H](C)O)C(=O)N[C@@H](CCCCN)C(=O)N[C@H](C(=O)N[C@@H](CCC(N)=O)C(=O)N[C@@H](C)C(=O)N[C@@H](CCCCN)C(=O)N[C@@H](CCC(N)=O)C(=O)N1CCC[C@H]1C(=O)N[C@@H](C)C(=O)N[C@@H](CCCNC(=N)N)C(=O)N[C@@H](Cc1ccc(O)cc1)C(=O)N[C@@H](CCCNC(=N)N)C(=O)N[C@@H](CCCNC(=N)N)C(=O)N[C@@H](Cc1ccccc1)C(=O)N[C@@H](CS)C(=O)O)[C@@H](C)O (H-FWFTLIKTQAKQPARYRRFC-OH)
IC50 [20]: 7 µM
